# Data reported in US5747463A, “Malonate derivatives of glycolipids as cell adhesion inhibitors” (Bristol-Myers Squibb Company, priority 1996, dated 1998).
# Experiments:
# P-selectin = target: T1, P-selectin (Homo sapiens, UniProt P16109); settings: literature; cited from earlier work
# T1 sequence (P16109 42-830): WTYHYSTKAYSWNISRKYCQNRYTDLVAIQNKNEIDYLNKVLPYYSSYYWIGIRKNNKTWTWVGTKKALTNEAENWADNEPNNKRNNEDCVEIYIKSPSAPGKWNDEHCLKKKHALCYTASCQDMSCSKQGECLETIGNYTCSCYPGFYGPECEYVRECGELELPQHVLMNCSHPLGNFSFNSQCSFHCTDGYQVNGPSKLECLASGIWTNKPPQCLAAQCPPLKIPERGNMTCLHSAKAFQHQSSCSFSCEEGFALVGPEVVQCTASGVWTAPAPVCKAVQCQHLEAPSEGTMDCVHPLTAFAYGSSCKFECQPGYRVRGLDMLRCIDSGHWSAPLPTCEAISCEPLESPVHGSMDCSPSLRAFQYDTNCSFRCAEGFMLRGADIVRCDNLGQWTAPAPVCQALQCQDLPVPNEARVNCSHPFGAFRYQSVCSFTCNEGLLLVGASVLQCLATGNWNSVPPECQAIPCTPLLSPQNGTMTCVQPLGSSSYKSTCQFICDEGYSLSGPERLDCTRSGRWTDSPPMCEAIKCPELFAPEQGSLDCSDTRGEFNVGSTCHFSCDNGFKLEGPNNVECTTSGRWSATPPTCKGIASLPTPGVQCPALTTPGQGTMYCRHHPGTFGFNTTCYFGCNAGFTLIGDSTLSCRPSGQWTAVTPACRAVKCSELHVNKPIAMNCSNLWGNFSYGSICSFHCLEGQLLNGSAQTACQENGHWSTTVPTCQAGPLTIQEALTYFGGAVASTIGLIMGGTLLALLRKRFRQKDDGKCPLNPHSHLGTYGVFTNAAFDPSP
# rats = test: Reverse Passive Arthus Reaction in Rats (RPA); format: in vivo, male Sprague Dawley rats; set-up: key to RPA VP % Inhib. (vascular permeability): NS: no significant inhibition at 3 mg; settings: single dose of 3 mg IV, rat, 4 hours after BSA
# Source text: The reverse passive Arthus reaction in rats is a modification of the method by Mulligan et al., as described in J. Clin. Invest, (1991) 88: 1396-1406. This is an experimental model in which the interaction of antigen-antibodycomplexes and complement leads to a severe vasculitis that is associated with edema, induration, erythema and hemorrhage. The interaction between the antigen-antibody complexes and complement leads to a localized influx of neutrophils. These neutrophils release a variety of mediators that are associated with tissue damage and vascular permeability. The localized inflammatory reaction is measured using different techniques i.e., vascular permeability and neutrophil influx which is evaluated both biochemically and microscopically.
# Male Sprague Dawley specific pathogen-free rats with jugular vein cannulae (280-320 g, Hill Top Labs, Pennsylvania) are used in these studies. Animals are acclimated for at least 1 day and individually housed in stainless steel cages. The dorsal region of the rats is closely clipped 2 days prior to the experiments and divided into 4 sites on each side of the midline. Prior to all injections the rats are sedated with 0.4 ml per 300 gm rat of ketamine/rompun [1000 mg (10 ml) of ketamine HCl is mixed with 40 mg (2.0 ml) Rompun] administered IP and or inhalation anesthesia with metafane (methoxyflurane).
# Bovin Serum Albumin (BSA) and rabbit polyclonal IgG rich in anti-BSA are purchased from Sigma Chemical Co. (St. Louis, Mo.). Radiolabelled ^125 I-BSA (spAct 1-5 μCi/μg) is purchased from Dupont NEN (Boston, Mass.).
# Each rat is administered intradermal (ID) injection of (0.4 mg, 0.6 mg and 0.8 mg) anti-BSA in a volume of 100 μl per injection in normal saline. The ID injections are randomized near the mid dorsal region on both sides of the back bone. Immediately after the ID injections of the anti-BSA, the rats are administered intravenous (IV) injections of BSA (10 mg in 1.0 ml) in normal saline containing ^125 I labeled BSA (1 μCi/ml BSA or 5.0 μCi/kg body/wt) for quantification of dermal valscular injury. Anti-inflammatory agents such as inhibitors of adhesion molecules of the present invention are administered IV at a single dose of 3 mg immediately after BSA. Four (4) hours after the IV injection of BSA, the rats are anesthetized with metafane and 2 to 3 ml of blood is withdrawn via the cannula into an anticoagulant containing (EDTA or Heparin) tube and plasma separated and saved for neutrophil and albumin quantitation. The rats are killed and the skin surrounding the injection site (15 mm diameter) is punched out and weighed. The skin sample and a fixed volume of plasma (0.1 to 1.0 ml) is analyzed in a gamma-counter for ^125 I content. Skin samples from the contralateral side are processed and analyzed for myeloperoxidase activity (MPO) as a measure of neutrophil accumulation. As needed, samples are also processed for histological evaluation of the reacted sites.
# The calculation of the plasma protein exudation into skin is made by determining the radioactivity in the tissue and relating this to the level of radioactive albumin in the blood at the time of sacrifice. […] [formula]
# Percent inhibition of the test compound at 3 mg was determined as follows: [formula] Myeloperoxidase (MPO)
# MPO is located in the azurophil granules of polymorphonuclear leukocytes (PMN). Because of its abundance in these cells (5% dry weight), this enzyme is used as a marker for tissue neutrophil content. For tissue MPO content, the method of Bradley, et al., was used as described in J. Invest. Dermatol. (1982) 78: 206-209. Biopsies from each treatment group were placed in plastic tubes (15×100 mm) containing 10 ml of 0.5% hexadecyltrimethylammonium bromide (HTAB) in 0.05M potassium phosphate buffer pH 6.0. The tissue was then homogenized with a Brinkmann Polytron homogenizer (10s). […]
# [1] = system: platelet: HL-60 cell adhesion; test: HL-60 Platelet Cell Adhesion Assay; format: cell-based; settings: 0.5 h; thrombin-activated human platelets: HL-60 5:1, 30 minutes at room temperature; read-out: P-selectin HL-60 Platelets IC50
# Experimental: HL-60 cells, obtained from American Type Culture Collection, were cultured in RPMI 1640 medium (GIBCO) supplemented with 20% fetal calf serum (Sigma) and 50 μg/ml gentamicin (GIBCO). Cells in log phase growth were harvested, washed and resuspended in Tyrodes buffer containing 5 mM HEPES and 0.2% bovine serum albumin and were fixed with 1% buffered formalin.
# Blood from normal human donors was anticoagulated with citrate, layered over 1-Step Platelets (Accurate Chemical Co.) and centrifuged at 350 g for 20 minutes at room temperature. The platelet band was collected, diluted in 2 volumes of Tyrode's Buffer with 5 mM HEPES, 10 mM EDTA, and 0.2% BSA (pH 7.4) (THEB) and centrifuged at 600 g for 10 minutes. The platelet pellet was resuspended in THEB and incubated at room temperature for 1 hour. Calcein-acetoxy methylester (Calcein-Am, Molecular Probes) was added to the platelets at a final concentration of 10 μM and incubated for 10 minutes at 37° C. to label the platelets. Without washing, the platelets were counted on a Coulter counter model ZM, and the concentration was adjusted to 1×10^7 /ml. The platelets were activated with 2 U/ml of human thrombin for 10 minutes in Tyrode's containing 2 mM CaCl2, 5 mM HEPES, and 0.2% BSA (pH 7.4) (THB) at 37° C. and immediately fixed with 1% buffered formalin for 1 to 2 hours at room temperature. A small aliquot of labeled platelets was removed before activation and designated as non-activated.
# Both platelets and HL-60 were washed in a ≥25 fold excess volume of Hanks Balanced Salt Solution (HBSS), resuspended in THB and counted. Cell concentrations were adjusted to 2×10^7 /ml for platelets and 4×10^6 /ml for HL-60, this ratio determined to be optimum for platelet: HL-60 cell adhesion. Compounds were incubated with 50 μl of platelets for 30 minutes at room temperature before addition of 50 μl of HL-60. This ratio of 5:1 platelets to HL-60 was incubated for 30 minutes at room temperature before addition of 0.2 ml of THB to increase the volume so the samples could be analyzed on a FACScan cytometer (Becton Dickinson). Non-activated platelets, and activated platelets with 10 mM EDTA were included as controls. Data were collected within a region set for the forward scatter channel corresponding to HL-60 size events.
# The percent HL-60 cells which contained bound platelets was determined for each test condition. The inhibition of binding was determined by comparison to standards which were treated with vehicle alone (representing 0% inhibition) and standards whose specific binding had been blocked by the use of EDTA (representing 100% inhibition), by the following formula: [formula] where x=HL-60 cells containing bound platelets in the presence of the compound;
# b=HL-60 cells containing bound platelets in the presence of EDTA;
# a=HL-60 cells containing bound platelets in the presence of compound vehicle;
# z=% inhibition of platelet: HL-60 cell adhesion
Molecule,inhibition of P-selectin mediated adhesion (P-selectin),RPA MPO % Inhib. (myeloperoxidase) (rats) [%],RPA VP % Inhib. (vascular permeability) (rats) [%],IC50 [1] [µM],RPA VP % Inhib. (vascular permeability) (rats; printed as symbol)
heparin,inhibit P-selectin mediated adhesion,–,–,–,–
dextran sulfate,inhibit P-selectin mediated adhesion,–,–,–,–
"CCCCCCCCCCCCC/C=C/[C@@H](OC(=O)c1ccccc1)[C@H](CO[C@H]1O[C@H](CO)[C@H](O)[C@H](OCCCCC(C(=O)O)C(=O)O)[C@H]1O)NC(=O)CCCCCCCCCCCCCCC [Example 12, (2S,3R,4E)-3-Benzoyloxy-2-hexadecanoylamino-1-[3-O-(5,5-di-carboxypent-1-yl)-α-D-galactopyranosyloxy]-4-octadecene]",–,82,33,22.9,–
"CCCCCCCCCCCCC/C=C/[C@@H](OC(=O)c1ccccc1)[C@H](CO[C@@H]1O[C@H](CO)[C@H](O)[C@H](OCCCCC(C(=O)O)C(=O)O)[C@H]1O)NC(=O)CCCCCCCCCCCCCCC [Example 14, (2S,3R,4E)-3-Benzoyloxy-2-hexadecanoylamino-1-[3-O-(5,5-di-carboxypent-1-yl)-β-D-galactopyranosyloxy]-4-octadecene]",–,30.9,15.5,45,–
"CCCCCCCCCCCCC/C=C/[C@@H](OC(=O)c1ccccc1)[C@H](CO[C@H]1O[C@H](COCCC(C(=O)O)C(=O)O)[C@H](O)[C@H](O)[C@H]1O)NC(=O)CCCCCCCCCCCCCCC [Example 6, (2S,3R,4E)-3-Benzoyloxy-2-hexadecanoylamino-1-[6-O-(3,3-di-carboxyprop-1-yl)-α-D-galactopyranosyloxy]-4-octadecene]",–,25,–,13,NS
"CCCCCCCCCCCCC/C=C/[C@@H](OC(=O)c1ccccc1)[C@H](CO[C@@H]1O[C@H](CO)[C@H](O)[C@H](OC(=O)c2ccccc2)[C@H]1OCCCCC(C(=O)O)C(=O)O)NC(=O)CCCCCCCCCCCCCCC [Example 18, (2S,3R,4E)-3-Benzoyloxy-2-hexadecanoylamino-1-[2-O-(5,5-di-carboxypent-1-yl)-3-O-benzoyl-β-D-galactopyranosyloxy]-4-octadecene]",–,61.6,4.3,8.8,–
"CCCCCCCCCCCCC/C=C/[C@@H](OC(=O)c1ccccc1)[C@H](CO[C@H]1O[C@H](CO)[C@H](OCCC(C(=O)O)C(=O)O)[C@H](O)[C@H]1O)NC(=O)CCCCCCCCCCCCCCC [Example 24, (2S,3R,4E)-3-Benzoyloxy-2-hexadecanoylamino-1-[4-O-(3,3-di-carboxyprop-1-yl)-α-D-galactopyranosyloxy]-4-octadecene]",–,35,33.5,51,–
fucoidan,inhibit P-selectin mediated adhesion,–,–,–,–
